Measurements as given in PubChem BioAssay (NCI).
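In this assay, cells in 96-well plates receive the compound at five concentrations for 48 hours. Endpoints are linearly interpolated between the surrounding concentrations. Abbreviation: GI50, concentration required for 50% inhibition of growth. TGI is the concentration that stops growth completely.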

What was measured:
Experiment in all cases: NCI tumour cell line growth inhibition, 48 h
[1] = system: UACC-62 melanoma
[2] = system: CAKI-1 renal
[3] = system: COLO 205 colon
[4] = system: PC-3 prostate
[5] = system: HL-60(TB) leukemia
[6] = system: SR leukemia
[7] = system: HCC-2998 colon
[8] = system: SN12C renal
[9] = system: NCI-H522 lung
[10] = system: U251 CNS
[11] = system: RPMI-8226 leukemia
[12] = system: OVCAR-5 ovarian
[13] = system: DU-145 prostate
[14] = system: MOLT-4 leukemia
[15] = system: MDA-MB-231 breast
[16] = system: SK-OV-3 ovarian
[17] = system: HT29 colon
[18] = system: K-562 leukemia
[19] = system: HS 578T breast
[20] = system: CCRF-CEM leukemia
[21] = system: EKVX NSCLC
[22] = system: SF-539 CNS
[23] = system: UACC-257 melanoma
[24] = system: HCT-116 colon
[25] = system: SK-MEL-5 melanoma
[26] = system: SF-295 CNS
[27] = system: HOP-62 NSCLC
[28] = system: TK-10 renal
[29] = system: MALME-3M melanoma
[30] = system: NCI-H460 lung
[31] = system: A549 NSCLC
[32] = system: SF-268 CNS
[33] = system: M14 melanoma
[34] = system: SK-MEL-2 melanoma
[35] = system: SW-620 colon
[36] = system: T-47D breast
[37] = system: OVCAR-4 ovarian
[38] = system: SK-MEL-28 melanoma
[39] = system: HCT-15 colon
[40] = system: KM12 colon
[41] = system: NCI/ADR-RES ovarian
[42] = system: ACHN renal
[43] = system: RXF 393 renal
[44] = system: SNB-19 CNS
[45] = system: OVCAR-8 ovarian
[46] = system: UO-31 renal
[47] = system: BT-549 breast
[48] = system: LOX IMVI melanoma
[49] = system: 786-0 renal
[50] = system: SNB-75 CNS
[51] = system: HOP-92 NSCLC
[52] = system: NCI-H226 lung
[53] = system: A498 renal
[54] = system: MDA-MB-435
[55] = system: MCF7 breast
[56] = system: OVCAR-3 ovarian
[57] = system: IGROV1 ovarian

Compound `CN1CCN(Cc2ccc(NC(=O)c3cncc(C#Cc4cnc(N)nc4)c3)cc2C(F)(F)F)CC1` has a GI50 [1] of 298 nM, a TGI [1] of 3.39 µM and a GI50 [2] of 150 nM. It also gave a TGI [2] of 763 nM, a GI50 [3] of 398 nM and a TGI [3] of 5.61 µM. For the same compound, the GI50 [4] was 0.821 µM, the TGI [4] was 17.2 µM and the GI50 [5] was 283 nM. The TGI [5] was 3.59 µM, the GI50 [6] was 425 nM and the TGI [6] was 8.48 µM. It also gave a GI50 [7] of 1.35 µM, a TGI [7] of 9.53 µM and a GI50 [8] of 0.332 µM. For the same compound, the TGI [8] was 5.74 µM, the GI50 [9] was 376 nM and the TGI [9] was 6.93 µM. It also gave a GI50 [10] of 521 nM, a TGI [10] of 9.28 µM and a GI50 [11] of 660 nM. For the same compound, the TGI [11] was 6.43 µM, the GI50 [12] was 994 nM and the TGI [12] was 9.76 µM. For the same compound, the GI50 [13] was 385 nM, the TGI [13] was 11.4 µM and the GI50 [14] was 449 nM. For the same compound, the TGI [14] was 11.6 µM, the GI50 [15] was 258 nM and the TGI [15] was 3.46 µM. For the same compound, the GI50 [16] was 174 nM, the TGI [16] was 1.12 µM and the GI50 [17] was 351 nM. For the same compound, the TGI [17] was 6.01 µM, the GI50 [18] was 5 nM and the TGI [18] was 50 µM. It also gave a GI50 [19] of 331 nM, a TGI [19] of 2.29 µM and a GI50 [20] of 1160 nM. For the same compound, the TGI [20] was 16 µM, the GI50 [21] was 1.2 µM and the TGI [21] was 14.6 µM. The GI50 [22] was 263 nM, the TGI [22] was 3.78 µM and the GI50 [23] was 773 nM. The TGI [23] was 6.12 µM, the GI50 [24] was 231 nM and the TGI [24] was 5.16 µM. The GI50 [25] was 1180 nM, the TGI [25] was 5.7 µM and the GI50 [26] was 1.43 µM. The TGI [26] was 9.22 µM, the GI50 [27] was 0.952 µM and the TGI [27] was 6.43 µM. For the same compound, the GI50 [28] was 810 nM, the TGI [28] was 7.17 µM and the GI50 [29] was 150 nM. For the same compound, the TGI [29] was 653 nM, the GI50 [30] was 306 nM and the TGI [30] was 6.23 µM. The GI50 [31] was 1.01 µM, the TGI [31] was 8.74 µM and the GI50 [32] was 930 nM. For the same compound, the TGI [32] was 8.72 µM, the GI50 [33] was 178 nM and the TGI [33] was 1.28 µM. It also gave a GI50 [34] of 0.11 µM, a TGI [34] of 0.339 µM and a GI50 [35] of 490 nM. The TGI [35] was 6.41 µM, the GI50 [36] was 916 nM and the TGI [36] was 50 µM. For the same compound, the GI50 [37] was 553 nM, the TGI [37] was 9.75 µM and the GI50 [38] was 0.56 µM. For the same compound, the TGI [38] was 3.54 µM, the GI50 [39] was 0.556 µM and the TGI [39] was 12.9 µM. It also gave a GI50 [40] of 52.1 nM, a TGI [40] of 7.27 µM and a GI50 [41] of 3560 nM. The TGI [41] was 19.9 µM, the GI50 [42] was 244 nM and the TGI [42] was 5.23 µM. It also gave a GI50 [43] of 346 nM, a TGI [43] of 4.18 µM and a GI50 [44] of 4.38 µM. For the same compound, the TGI [44] was 27.6 µM, the GI50 [45] was 1070 nM and the TGI [45] was 9.57 µM. The GI50 [46] was 396 nM, the TGI [46] was 2880 nM and the GI50 [47] was 1240 nM. The TGI [47] was 5.47 µM, the GI50 [48] was 189 nM and the TGI [48] was 846 nM. For the same compound, the GI50 [49] was 0.849 µM, the TGI [49] was 5.79 µM and the GI50 [50] was 123 nM. The TGI [50] was 1 µM, the GI50 [51] was 157 nM and the TGI [51] was 1230 nM. The GI50 [52] was 0.203 µM, the TGI [52] was 2.22 µM and the GI50 [53] was 228 nM. The TGI [53] was 1.14 µM, the GI50 [54] was 247 nM and the TGI [54] was 5.56 µM. For the same compound, the GI50 [55] was 1.47 µM, the TGI [55] was 11.6 µM and the GI50 [56] was 957 nM. It also gave a TGI [56] of 10.1 µM, a GI50 [57] of 189 nM and a TGI [57] of 5.21 µM.

Work on `C#Cc1nc(/C=C/CCCCCCC(=O)NO)cs1` yielded a GI50 [1] of 3100 nM, a TGI [1] of 15 µM and a GI50 [3] of 4730 nM. For the same compound, the TGI [3] was 18 µM, the GI50 [4] was 5.27 µM and the TGI [4] was over 100 µM. The GI50 [7] was 11.6 µM, the TGI [7] was 36.9 µM and the GI50 [8] was 7.84 µM. It also gave a TGI [8] of over 100 µM, a GI50 [9] of 3050 nM and a TGI [9] of 17.9 µM. For the same compound, the GI50 [10] was 3470 nM, the TGI [10] was 18.6 µM and the GI50 [11] was 1410 nM. For the same compound, the TGI [11] was 5.21 µM, the GI50 [12] was 3070 nM and the TGI [12] was over 100 µM. The GI50 [13] was 3010 nM, the TGI [13] was over 100 µM and the GI50 [15] was 2250 nM. It also gave a TGI [15] of 5.13 µM, a GI50 [16] of 5120 nM and a TGI [16] of 28.3 µM. For the same compound, the GI50 [17] was 4260 nM, the TGI [17] was 31.4 µM and the GI50 [18] was 2950 nM. It also gave a TGI [18] of over 100 µM, a GI50 [19] of 3590 nM and a TGI [19] of 76.3 µM. It also gave a GI50 [21] of 22.7 µM, a TGI [21] of over 100 µM and a GI50 [22] of 1590 nM. For the same compound, the TGI [22] was 3.05 µM, the GI50 [23] was 3390 nM and the TGI [23] was over 100 µM. The GI50 [24] was 2700 nM, the TGI [24] was 10.5 µM and the GI50 [25] was 4810 nM. It also gave a TGI [25] of 17.4 µM, a GI50 [26] of 5.52 µM and a TGI [26] of 19.3 µM. The GI50 [27] was 5.47 µM, the TGI [27] was 58.7 µM and the GI50 [28] was 2290 nM. For the same compound, the TGI [28] was 16.3 µM, the GI50 [29] was 1530 nM and the TGI [29] was 3120 nM. The GI50 [30] was 4160 nM, the TGI [30] was over 100 µM and the GI50 [31] was 6.23 µM. The TGI [31] was over 100 µM, the GI50 [32] was 3890 nM and the TGI [32] was 14.9 µM. The GI50 [33] was 5180 nM, the TGI [33] was 61.4 µM and the GI50 [34] was 20.6 µM. It also gave a TGI [34] of 85.5 µM, a GI50 [35] of 2140 nM and a TGI [35] of 4.9 µM. For the same compound, the GI50 [36] was 3080 nM, the TGI [36] was 33.8 µM and the GI50 [37] was 2310 nM. The TGI [37] was 6.34 µM, the GI50 [38] was 9.61 µM and the TGI [38] was 94.7 µM. For the same compound, the GI50 [39] was 7.53 µM, the TGI [39] was over 100 µM and the GI50 [40] was 5320 nM. The TGI [40] was 42.6 µM, the GI50 [41] was 2150 nM and the TGI [41] was 13.6 µM. It also gave a GI50 [44] of 16 µM, a TGI [44] of over 100 µM and a GI50 [45] of 3450 nM. The TGI [45] was over 100 µM, the GI50 [47] was 4050 nM and the TGI [47] was 49.5 µM. The GI50 [48] was 185 nM, the TGI [48] was 352 nM and the GI50 [49] was 6.72 µM. For the same compound, the TGI [49] was 47.7 µM, the GI50 [50] was 1740 nM and the TGI [50] was 9.61 µM. The GI50 [51] was 1180 nM, the TGI [51] was 2760 nM and the GI50 [52] was 13.3 µM. The TGI [52] was 53.6 µM, the GI50 [53] was 3700 nM and the TGI [53] was 16.8 µM. It also gave a GI50 [54] of 5670 nM, a TGI [54] of over 100 µM and a GI50 [55] of 5.03 µM. For the same compound, the TGI [55] was over 100 µM, the GI50 [57] was 1630 nM and the TGI [57] was 3.38 µM.
